“And” between values parts separate entries of the source, which are not always exact repeats. Equal values may be shown once.
What was measured:
CCD-841CoN cells = experiment: cells; format: cell-based; details: Homo sapiens, CCD-841CoN, 24 h, read-out: IC50 value
Excerpt: (§1) Control cells were not treated with the compounds.

HCT116 cells = experiment: MTT cytotoxicity assay, HCT116; format: cell-based; details: Homo sapiens, HCT-116, 24 h, read-out: IC50 value
Excerpt: as §1

RKO cells = experiment: MTT cytotoxicity assay, RKO; details: Homo sapiens, 24 h, read-out: IC50 value
Method: (§2) Six colorectal cancer cell lines, RKO, HT29, DLD-1, HCT116, Caco2 and SW1116 (CRL-2577, HTB-38, CCL-221, CCL-247, HTB-37, CCL-233; ATCC, Manassas, VA, USA, respectively, for CRC lines), and one normal cell line, CCD-841CoN (CRL-1790, ATCC, USA), were routinely cultured at 37 °C in a 5% CO2 incubator (Direct Heat CO2; Thermo Scientific, Waltham, MA, USA) in cell line-appropriate culture medium according to the manufacturer’s recommendations. Eagle’s minimum essential medium (EMEM) was used to culture RKO, Caco2 and CCD-841CoN lines, while McCoy’s 5A medium was used for HT29 and HCT116 lines. DLD-1 cells were grown in RPMI-1640 medium, whereas SW1116 cells were maintained in Leibovitz’s L-15 medium. All culture media were supplemented with 10% fetal bovine serum (EuroClone, Milan, Italy), and gentamycin at the concentration […] (BioWhittaker, Lonza, Basel, Switzerland) was also applied to prevent culture contamination.
(§3) For this purpose, cells were exposed to the test compound for 24 h at concentrations of 0.1, 1, 10, 20, 50 and 100 μg/mL. Control cells were not treated with the compounds. MTT (0.25 mg/mL) was then added to the cultures and incubated for 3 h at 37 °C. After a time, the cells were washed with phosphate buffered saline (PBS), and next, formazan dye was dissolved in 100 μL of dimethyl sulfoxide (Sigma-Aldrich, St Louis, MO, USA). Absorbance was measured at 540 nm using a Wallac 1420 VICTOR microplate reader (PerkinElmer, Waltham, MA, USA).

HT29 cells = experiment: MTT cytotoxicity assay, HT29; format: cell-based; details: Homo sapiens, HT-29, 24 h, read-out: IC50 value
Excerpt: as §1

Caco2 cells = experiment: MTT cytotoxicity assay, Caco2; format: cell-based; details: Homo sapiens, Caco-2, 24 h, read-out: IC50 value
DLD-1 cells = experiment: MTT cytotoxicity assay, DLD-1; format: cell-based; details: Homo sapiens, DLD-1, 24 h, read-out: IC50 value
Excerpt: as §1

SW1116 cells = experiment: MTT cytotoxicity assay, SW1116; details: for IC50: Homo sapiens, SW 1116, 24 h, read-out: IC50 value
Method: as §2, §3

[1] = test system: colorectal cancer cell lines RKO, HT29, DLD-1, HCT116, Caco2 and SW1116; experiment: MTT cytotoxicity assay, statements over all tested cell lines
Method: as §2, §3

Row | Compound | IC50 (CCD-841CoN cells) | IC50 (HCT116 cells) | IC50 (RKO cells) | IC50 (HT29 cells) | IC50 (Caco2 cells) | IC50 (DLD-1 cells) | IC50 (SW1116 cells) | sensitivity of cells to the compound (SW1116 cells; SW1116, 10 µg/mL, in comparison with other CRC lines and normal colonocytes) | cytotoxic effect compared with the other tested compounds ([1]; MTT, 24 h) | selectivity towards cancer cells ([1]; cancer lines vs normal cells) | change in cell viability ([1]; each of the tested cell lines, concentrations higher than 1 µg/mL)
1 | C=C(C)[C@@H]1CC[C@]2(COC(=O)c3cn(CP(=O)(OCC)OCC)nn3)CC[C@]3(C)C(CCC4[C@@]5(C)CC[C@H](O)C(C)(C)C5CC[C@]43C)C12 (some centres unmarked) [TR50] | 18.3 µg/mL and 26.6 µM | 6.71 µg/mL and 9.76 µM | 4.33 µg/mL and 6.29 µM | 10.3 µg/mL and 14.9 µM | 13 µg/mL and 18.9 µM | 7.87 µg/mL and 11.4 µM | 33.1 µg/mL and 48.1 µM | lack of sensitivity |  |  | 
2 | C#CC(=O)OC[C@]12CC[C@@H](/C(C)=C/P(=O)(OCC)OCC)C1C1CCC3[C@@]4(C)CC[C@H](O)C(C)(C)C4CC[C@@]3(C)[C@]1(C)CC2 (some centres unmarked) [ECH147, 29-diethoxyphosphoryl-28-propynylobetulin] |  | 3.24 µg/mL and 5.59 µM | 1.18 µg/mL and 2.04 µM | 0.63 µg/mL and 1.09 µM | 1.4 µg/mL and 2.43 µM | 0.69 µg/mL and 1.19 µM | 5.21 µg/mL and 8.99 µM |  | strongest cytotoxic effect | does not show selectivity towards cancer cells | significant decrease in cell viability
